Results from PMC10298284, “Synthesis and hLDH Inhibitory Activity of Analogues to Natural Products with 2,8-Dioxabicyclo[3.3.1]nonane Scaffold” (International Journal of Molecular Sciences, 2023).
Several values for one entry are separate records, joined by “and”; a condition that tells them apart may be missing. Equal entries are not always repeated. Where two headings read alike, the source gives them in different places.

Experiments:
recombinant human LDHB [1] = target: T1, recombinant human LDHB (Homo sapiens, UniProt P07195); assay: hLDHB enzymatic activity assay (same fluorimetric protocol); assay type: biochemical; settings: mean ± SD of n = 3 replicates
T1 construct: purchased Abcam
T1 sequence (P07195 whole entry): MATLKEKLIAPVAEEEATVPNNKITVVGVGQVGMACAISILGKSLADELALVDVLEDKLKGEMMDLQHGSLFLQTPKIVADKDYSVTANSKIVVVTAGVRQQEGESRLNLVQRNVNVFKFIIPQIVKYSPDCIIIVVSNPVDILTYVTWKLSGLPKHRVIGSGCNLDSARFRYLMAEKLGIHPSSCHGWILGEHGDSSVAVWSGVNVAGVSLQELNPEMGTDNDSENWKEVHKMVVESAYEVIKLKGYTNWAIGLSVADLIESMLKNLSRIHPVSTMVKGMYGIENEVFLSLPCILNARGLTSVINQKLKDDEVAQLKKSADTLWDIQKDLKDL
Method: (§1) Briefly, the decrease in the coenzyme β-NADH fluorescence (λemission = 460 nm) was measured for 10 min, at different concentration of inhibitors, and its slope was compared with the one obtained when there were not inhibitors added (100% enzymatic activity).
The ability of the synthesized compounds to inhibit the hLDHB enzyme was measured using recombinant human LDHB (95%, specific activity >300 units/mg and concentration of 1.0 mg/mL, Abcam, Cambridge, UK) following the same fluorimetric protocol described in Section 3.4.

recombinant human LDHA [2] = target: T2, recombinant human LDHA (Homo sapiens, UniProt P00338); parameters: method as in PMID 36113265; settings: compounds evaluated previously, cited from earlier work; for IC50: included for comparative purposes, read-out: hLDHA IC50; for Selectivity Rate (IC50 hLDHB/hLDHA): ratio IC50 hLDHB / IC50 hLDHA
T2 construct: purchased Abcam

recombinant human LDHB [3] = target: T1, recombinant human LDHB; parameters: method as in PMID 36113265; settings: compounds evaluated previously, included for comparative purposes; read-out: hLDHB IC50; cited from earlier work
recombinant human LDHA [4] = target: T2, recombinant human LDHA; assay: hLDHA enzymatic activity assay (kinetic spectrofluorimetric, β-NADH fluorescence decrease); assay type: biochemical; settings: for IC50: mean ± SD of n = 3 replicates; for Selectivity Rate (IC50 hLDHB/hLDHA): ratio IC50 hLDHB / IC50 hLDHA
Method: as §1
The enzymatic assay was conducted on 96-well microplates and the decrease in the β-NADH fluorescence (λexcitation = 340 nm; λemission = 460 nm) was detected in a TECAN Infinite 200 Pro M Plex fluorescent plate reader (Tecan Instrument, Inc.) at 28 °C. The activity was determined according to our previously described protocol. The final volume in each well was set to 200 µL using 100 mM potassium phosphate buffer, 0.041 units/mL LDHA, 155 µM β-NADH, 1 mM pyruvate (saturated conditions), and DMSO solutions (5%, v/v) of pure compounds at concentrations in the range of 1–600 µM. The addition of pyruvate allowed the beginning of the reaction and fluorescence was registered every 60 s during 10 min. A lineal time interval was selected to calculate the slope at every single concentration. […] The slope obtained at each concentration was compared to the one obtained for the 100% enzymatic activity control to determine the corresponding enzymatic activity. A nonlinear regression analysis in GraphPad Prism version 9.00 for Windows (GraphPad Software, La Jolla, CA, USA) was used for dose response curve, fitting of logarithm of inhibitor concentration vs. normalized enzymatic activity, to calculate IC50 values (Supplementary Material section). All measurements were made in triplicate and data were expressed as the mean ± SD.

[5] = supplementary dose response curves, µM only on the axis label, read-out: IC50 (hLDHB inhibition curve)
[6] = 1 mM pyruvate, 155 µM β-NADH, pH 7.3, 28 °C, read-out: hLDHA IC50
[7] = supplementary dose response curves, µM only on the axis label, read-out: IC50 (hLDHA inhibition curve)

| Compound | IC50 (recombinant human LDHB [1]; [5]) [µM] | IC50 (recombinant human LDHA [2]) [µM] | Selectivity Rate (IC50 hLDHB/hLDHA) (recombinant human LDHA [2]) | IC50 (recombinant human LDHB [3]) [µM] | IC50 (recombinant human LDHB [1]; read-out: hLDHB IC50) [µM] | IC50 (recombinant human LDHA [4]; [6]) | Selectivity Rate (IC50 hLDHB/hLDHA) (recombinant human LDHA [4]) | IC50 (recombinant human LDHA [4]; [7]) [µM] | melting point | Selectivity Rate (IC50 hLDHB/hLDHA) (recombinant human LDHA [4]; listed as 50) | Selectivity Rate (IC50 hLDHB/hLDHA) (recombinant human LDHA [4]; listed as 65a) | Selectivity Rate (IC50 hLDHB/hLDHA) (recombinant human LDHA [4]; listed as 67a) |
| --- | --- | --- | --- | --- | --- | --- | --- | --- | --- | --- | --- | --- |
| Oc1cc(O)c2c(c1)OC1(c3ccc(O)c(O)c3)CC2c2ccccc2O1 (racemic) [(±)-1] | 35.4 ± 0.8 | 73.1 ± 2.5 | 0.5 | – | – | – | – | – | – | – | – | – |
| O=[N+]([O-])c1ccc2c(c1)C1CC(c3ccc(O)c(O)c3)(O2)Oc2cc(O)cc(O)c21 (racemic) [(±)-2] | – | 9.7 ± 1.1 | 3.0 | 28.6 ± 1.9 | – | – | – | – | – | – | – | – |
| Oc1cc(O)c2c(c1)OC1(c3ccc(O)c(O)c3)CC2c2cc(Cl)ccc2O1 (racemic) [(±)-3] | – | 15.7 ± 2.7 | 2.5 | 39.7 ± 2.8 | – | – | – | – | – | – | – | – |
| Oc1ccc(C23CC(c4ccccc4O2)c2c(O)cc(O)cc2O3)cc1 (racemic) [(±)-4] | 45.9 ± 1.5 | 60 ± 4.7 | 0.8 | – | – | – | – | – | – | – | – | – |
| O=[N+]([O-])c1ccc2c(c1)C1CC(c3ccc(O)cc3)(O2)Oc2cc(O)cc(O)c21 (racemic) [(±)-5] | – | 24.4 ± 2.7 | 2.9 | 69.7 ± 4.7 | – | – | – | – | – | – | – | – |
| Oc1ccc(C23CC(c4cc(Cl)ccc4O2)c2c(O)cc(O)cc2O3)cc1 (racemic) [(±)-6] | – | 26.7 ± 0.8 | 3.2 | 85.5 ± 2.5 | – | – | – | – | – | – | – | – |
| COc1ccc(C23CC(c4ccccc4O2)c2c(O)cc(O)cc2O3)cc1OC (racemic) [(±)-42, 2-(3′,4′-Dimethoxyphenyl)-chromane-(4→4″, 2→O-5″)-phloroglucinol] | – | – | – | – | 293.1 ± 2.4 | 154 ± 11.3 µM | 1.9 | 154 ± 11.3 | 77 to 80 °C (dec.) | – | – | – |
| COc1ccc(C23CC(c4cc([N+](=O)[O-])ccc4O2)c2c(O)cc(O)cc2O3)cc1OC (racemic) [(±)-43, 2-(3′,4′-Dimethoxyphenyl)-6-nitrochromane-(4→4″, 2→O-5″)-phloroglucinol] | – | – | – | – | 65.3 ± 2.1 | < 10 µM and 8.2 µM | 8.0 | 8.2 ± 0.2 | 193 to 195 °C | – | – | – |
| O=c1oc2ccccc2c2c1C1CC(c3ccc(O)c(O)c3)(Oc3ccc(Cl)cc31)O2 (racemic) [(±)-47, 2-(3′,4′-Dihydroxyphenyl)-6-chlorochromane-(4→3″, 2→O-4″)-4″-hydroxycoumarin] | – | – | – | – | 14.3 ± 0.9 | < 10 µM and 9.1 µM | 1.6 | 9.1 ± 0.5 | 98 to 100 °C (dec.) | – | – | – |
| COc1ccc(C23CC(c4cc([N+](=O)[O-])ccc4O2)c2c(c4ccccc4oc2=O)O3)cc1OC (racemic) [(±)-49, 2-(3′,4′-Dimethoxyphenyl)-6-nitrochromane-(4→3″, 2→O-4″)-4″-hydroxycoumarin] | – | – | – | – | 212.3 ± 1.4 | 25.7 ± 0.3 µM | 8.3 | 25.7 ± 0.3 | 142 to 144 °C | – | – | – |
| COc1ccc(C23CC(c4cc(Cl)ccc4O2)c2c(c4ccccc4oc2=O)O3)cc1OC (racemic) [(±)-50, 2-(3′,4′-Dimethoxyphenyl)-6-chlorochromane-(4→3″, 2→O-4″)-4″-hydroxycoumarin] | – | – | – | – | > 300 | 13.2 ± 0.8 µM | >22.7 | 13.2 ± 0.8 | 130 to 133 °C | > 10 | – | – |
| O=C1C2=C(C(=O)c3ccccc31)C1CC(c3ccc(O)c(O)c3)(O2)Oc2ccc([N+](=O)[O-])cc21 (racemic) [(±)-55, 2-(3′.4′-Dihydroxyphenyl)-6-nitrochromane-(4→3″, 2→O-2″)-2″-hydroxy-1″,4″-naphthoquinone] | – | – | – | – | – | 27.4 ± 0.6 µM | 1.1 | 27.4 ± 0.6 | 247 to 250 °C | – | – | – |
| O=C1C2=C(C(=O)c3ccccc31)C1CC(c3ccc(O)c(O)c3)(O2)Oc2ccc(Cl)cc21 (racemic) [(±)-56, 2-(3′,4′-Dihydroxyphenyl)-6-chlorochromane-(4→3″, 2→O-2″)-2″-hydroxy-1″,4″-naphthoquinone] | – | – | – | – | 119 ± 2.7 | 13.7 ± 0.6 µM | 8.7 | 13.7 ± 0.6 | 300 to 302 °C (dec.) | – | – | – |
| COc1ccc(C2CC3=C(C(=O)O2)C2CC(c4ccc(OC)c(OC)c4)(O3)Oc3ccccc32)cc1 (racemic) [(±)-64a, 2-(3′,4′-Dimethoxyphenyl)-chromane-(4→3″, 2→O-4″)-4″-hydroxy-6″-(4‴-methoxyphenyl)-5″,6″-dihydro-2H-pyran-2″-one] | – | – | – | – | > 300 | 52.8 ± 5.3 µM | >5.7 | 52.8 ± 5.3 | 172 to 175 °C | – | – | – |
| COc1ccc(C23CC(C4=C(CC(c5ccccc5)OC4=O)O2)c2cc([N+](=O)[O-])ccc2O3)cc1OC (racemic) [(±)-65a, 2-(3′,4′-Dimethoxyphenyl)-6-nitrochromane-(4→3″, 2→O-4″)-4″-hydroxy-6″-phenyl-5″,6″-dihydro-2H-pyran-2″-one] | – | – | – | – | 269 ± 11 | 12.5 ± 1.1 µM | 21.5 | 12.5 ± 1.1 | 198 to 200 °C | – | > 10 | – |
| COc1ccc(C23CC(C4=C(CC(c5ccc(Cl)cc5)OC4=O)O2)c2cc([N+](=O)[O-])ccc2O3)cc1OC (racemic) [(±)-66a, 2-(3′,4′-Dimethoxyphenyl)-6-nitrochromane-(4→3″, 2→O-4″)-6″-(4‴-chlorophenyl)-4″-hydroxy-5″,6″-dihydro-2H-pyran-2″-one] | – | – | – | – | 28.1 ± 0.4 | < 10 µM and 5.8 µM | 4.8 | 5.8 | 194 to 196 °C | – | – | – |
| COc1ccc(C2CC3=C(C(=O)O2)C2CC(c4ccc(OC)c(OC)c4)(O3)Oc3ccc([N+](=O)[O-])cc32)cc1 (racemic) [(±)-67a, 2-(3′,4′-Dimethoxyphenyl)-6-nitrochromane-(4→3″, 2→O-4″)-4″-hydroxy-6″-(4‴-methoxyphenyl)-5″,6″-dihydro-2H-pyran-2″-one] | – | – | – | – | > 300 | 14.8 ± 0.6 µM | >20.3 | 14.8 ± 0.6 | 162 to 164 °C | – | – | > 10 |
| COc1ccc(C23CC(C4=C(CC(c5ccc(Cl)cc5)OC4=O)O2)c2cc(Cl)ccc2O3)cc1OC (racemic) [(±)-69a, 2-(3′,4′-Dimethoxyphenyl)-6-chlorochromane-(4→3″, 2→O-4″)-6″-(4‴-chlorophenyl)-4″-hydroxy-5″,6″-dihydro-2H-pyran-2″-one] | – | – | – | – | 141 ± 2.5 | 20 ± 0.6 µM | 7.1 | 20 ± 0.6 | 172 to 175 °C | – | – | – |
| COc1ccc(C2CC3=C(C(=O)O2)C2CC(c4ccc(OC)c(OC)c4)(O3)Oc3ccc(Cl)cc32)cc1 (racemic) [(±)-70a, 2-(3′.4′-Dimethoxyphenyl)-6-chlorochromane-(4→3″, 2→O-4″)-4″-hydroxy-6″-(4‴-methoxyphenyl)-5″,6″-dihydro-2H-pyran-2″-one] | – | – | – | – | > 300 | 112 ± 3 µM | >2.7 | 112 ± 3 | 108 to 111 °C | – | – | – |
